In patent US20040047880A1, “Component for vaccine” (priority 2000, published 2004):
No end group written: not given here.

What was measured:
Assay type in all cases: binding, mouse
mAb H44/58 [1] = assay: Phage-ELISA with mAb H44/58; settings: peptide-on-phage
Protocol: (§1) Phages were coated at 5×10^11 particules/ml on MaxiSorp multiwell plates. Coating was performed overnight at 4° C. with 100 μl/well. Plates were saturated with 5% (v/v) skimmed milk in TBS for 2 hours at 37° C. and washed 5 times with TBS-Tween20 0.05% (v/v). The mAbs were then incubated in the coated wells for 1 hour at 37° C., washed 5 times, and GAM-HRP conjugate (1500-fold dilution, Dako, Denmark) was added for 1 hour at 37° C. to detect the binding of the mAb to the phages. After 5 washings, the peroxidase activity was monitored by addition of the K-Blue® substrate (Neogen, Lexington, USA) at room temperature for 20 minutes. Reaction was stopped by addition of 25 μl of 2N H2SO4. Reading was performed at 450-630 nm. Each phage was coated in triplicate for testing with each mAb.

mAb H44/58 [2] = assay: SPOT peptide immunoblot, mAb H44/58
Source text: Another experiment for determining the best peptide candidates for immunisation trials is whether chemically synthesized peptides are recognized by at least one anti-MenB LOS mAb (and preferably not by irrelevant mAbs). This can be assessed on SPOT synthesized peptides (peptides synthesized directly on a cellulose membrane). This membrane can be tested with different mAbs by repetitive immunoblottings and chemiluminescent detection. Peptides may be synthesised with 3 residues originating from the pVIII protein sequence on each end of the peptide. Indeed, the primary structure of the peptides expressed in fusion with pVIII on the surface of the bacteriophage is as follows (x for any residue in the library):
For example linear peptides comprising peptide No. 61 from Table 2 (GEFPRPHFGAPPDPA) and peptide No. 83 (GEFAERSLWYYPDPA) were synthesised on one membrane, and cyclised peptides comprising peptide No. 50 from Table 2 (GEFCSSYSYVHDSCGDP), peptide 14 (GEFCSHAPPYDRVCGDP) and peptide 25 (GEFCRAPPYDTIMCGDP) were synthesised on another.
The protocol used to probe these membranes with mAbs was the one provided by Genosys, with some modifications, especially for the regeneration of membranes with cyclised peptides. […]

[3] = tested on: mAbs H44/24, H44/58, H44/70, H44/78, 4BE12C10; assay: ELISA test for the peptide-on-phage mAb interaction; settings: peptide-on-phage coated at 5×10^11 particules/ml; positives tested a second time
Protocol: To assess the binding of the mAbs to the numerous peptides-on-phage, all clones have been produced independently using the following protocol.
A preculture of E. coli DH11S infected with the phage was grown overnight. A sample of this preculture was used to inoculate a new 50 ml culture with a starting OD600nm of 0.050. This culture was grown up to an OD600nm of 0.20 to 0.25 with vigorous shaking at 37° C. The culture was then slowed down for 15 minutes in order to allow the regeneration of pili. M13K07 helper phage was added at an MOI of 20, and superinfection was allowed for 15 more minutes at 37° C. with slow agitation. IPTG (1 mM final concentration) was then added and the culture was grown for 5 hours with vigorous agitation.
A colony of K91kan containing the clone of interest (on a LB Tet plate) was added to 50 ml of LB supplemented with 20 μg/ml tetracycline and grown overnight at 37° C. with strong agitation.
Culture was centrifuged for 15 minutes at 4000RPM; 0.15 volume of PEG-NaCl solution was added to the supernatant for precipitating the phage and kept overnight at 4° C. Phage were collected by centrifugation, 45 minutes at 4000RPM. After being resuspended in TBS, phage were heated 15 minutes at 65° C. to kill remaining bacteria and to denature soluble proteins present in the sample. The solution was then centrifuged and the pellet was discarded. Phage in the supernatant were then precipitated again as indicated above. Phage were finally resuspended in 200 μl of TBS. Concentration of phage particules was determined by measuring the ΔOD at 269 nm-320 nm.
as §1

**Q.** For CRAPPYDTIMC [Peptide 25], which “Phage-ELISA result with mAb H44/58” value (mAb H44/58 [1]) is on record?
**A.** positive

**Q.** What about the “SPOT recognition by mAb 58 (H44/58)” value (mAb H44/58 [2]; Membrane 2 (cyclic peptides), synthesised with pVIII flanking residues) of the same sequence?
**A.** positive

**Q.** With “EQGYCTVNIEQCAKYR (LOS peptide mimotope sequence) [Peptide 146]” as the sequence, how does the “Phage ELISA: positive with at least one mAb” value (shortened to “Phage ELISA: positive”) [3] read?
**A.** positive

**Q.** How did the “Phage ELISA: positive” value [3] turn out when “CAPPGIAVRTC (not fully specified (bridges); cysteine pairing not given here) [Peptide 115]” was run?
**A.** positive

**Q.** For “CSEPWSTSNC (LOS peptide mimotope sequence) [Peptide 142]”, which “Phage ELISA: positive” value [3] is on record?
**A.** positive

**Q.** For “SQWRSAAPT (LOS peptide mimotope sequence) [Peptide 53]”, which “Phage ELISA: positive” value [3] is on record?
**A.** positive

**Q.** “CTPLPDGGILC (LOS peptide mimotope sequence) [Peptide 103]” was tested. Which “Phage ELISA: positive” value [3] did it give?
**A.** positive

**Q.** How did the “Phage ELISA: positive” value [3] turn out when “PLWYDPAPP (LOS peptide mimotope sequence) [Peptide 47]” was run?
**A.** positive

**Q.** How did the “Phage ELISA: positive” value [3] turn out when PRPHFGAPP [Peptide 61] was run?
**A.** positive

**Q.** How did the “Phage ELISA: positive” value [3] turn out when “CYPQLSHANPC (LOS peptide mimotope sequence) [Peptide 105]” was run?
**A.** positive

**Q.** For “EKKRFESNT (LOS peptide mimotope sequence) [Peptide 145]”, which “Phage ELISA: positive” value [3] is on record?
**A.** positive

**Q.** “CFGLIAFHPDC (LOS peptide mimotope sequence) [Peptide 27]” was tested. Which “Phage ELISA: positive” value [3] did it give?
**A.** positive

**Q.** With “HGRTLWYTP (LOS peptide mimotope sequence) [Peptide 55]” as the sequence, how does the “Phage ELISA: positive” value [3] read?
**A.** positive

**Q.** “CSSLYYHGTAC (LOS peptide mimotope sequence) [Peptide 39]” was tested. Which “Phage ELISA: positive” value [3] did it give?
**A.** positive

**Q.** Which “Phage ELISA: positive” value [3] does the source give for “WYSAPENAL (LOS peptide mimotope sequence) [Peptide 88]” here?
**A.** positive

**Q.** With “CAPYSIFIGEC (not fully specified (bridges); cysteine pairing not given here) [Peptide 17]” as the sequence, how does the “Phage ELISA: positive” value [3] read?
**A.** positive

**Q.** For “GPWHGPSSS (LOS peptide mimotope sequence) [Peptide 93]”, which “Phage ELISA: positive” value [3] is on record?
**A.** positive

**Q.** Which “Phage ELISA: positive” value [3] does the source give for CTANVYFGTYC [Peptide 29] here?
**A.** positive

**Q.** Which “Phage ELISA: positive” value [3] does the source give for “DSAPAVKSS (LOS peptide mimotope sequence) [Peptide 85]” here?
**A.** positive

**Q.** For CSHAPPYDRVC [Peptide 14], which “Phage-ELISA result with mAb H44/58” value (mAb H44/58 [1]) is on record?
**A.** positive

**Q.** And the “Phage ELISA: positive” value [3]?
**A.** positive

**Q.** How did the “Phage ELISA: positive” value [3] turn out when “CTHYSFYGDIC (LOS peptide mimotope sequence) [Peptide 66]” was run?
**A.** positive

**Q.** Which “Phage ELISA: positive” value [3] does the source give for “PGWYDAHPT (LOS peptide mimotope sequence) [Peptide 86]” here?
**A.** positive

**Q.** Which “Phage ELISA: positive” value [3] does the source give for “CHSVQPATRAC (LOS peptide mimotope sequence) [Peptide 131]” here?
**A.** positive

**Q.** For “EKKHFNYGT (LOS peptide mimotope sequence) [Peptide 144]”, which “Phage ELISA: positive” value [3] is on record?
**A.** positive

**Q.** How did the “Phage ELISA: positive” value [3] turn out when CSSYSYVHDSC [Peptide 50] was run?
**A.** positive

**Q.** For “CPKAPFSPFKC (LOS peptide mimotope sequence) [Peptide 132]”, which “Phage ELISA: positive” value [3] is on record?
**A.** positive

**Q.** For “NSPTSCKWLCNEKF (LOS peptide mimotope sequence) [Peptide 148]”, which “Phage ELISA: positive” value [3] is on record?
**A.** positive

**Q.** How did the “Phage ELISA: positive” value [3] turn out when “RGSEGSFAR (LOS peptide mimotope sequence) [Peptide 45]” was run?
**A.** positive

**Q.** Which “SPOT recognition by mAb 58 (H44/58)” value (mAb H44/58 [2]; Membrane 1 (linear peptide)) does the source give for AERSLWYYP [Peptide 83] here?
**A.** recognized

**Q.** What about the “Phage ELISA: positive” value [3] of the same sequence?
**A.** positive

**Q.** For “SPADCDYTTLCAKPT (LOS peptide mimotope sequence) [Peptide 147]”, which “Phage ELISA: positive” value [3] is on record?
**A.** positive

**Q.** “WYIAPRKTL (LOS peptide mimotope sequence) [Peptide 63]” was tested. Which “Phage ELISA: positive” value [3] did it give?
**A.** positive

**Q.** How did the “Phage ELISA: positive” value [3] turn out when “CPPPWSTHDC (LOS peptide mimotope sequence) [Peptide 141]” was run?
**A.** positive

**Q.** With “CPYTSWAREGC (LOS peptide mimotope sequence) [Peptide 140]” as the sequence, how does the “Phage ELISA: positive” value [3] read?
**A.** positive

**Q.** Which “Phage ELISA: positive” value [3] does the source give for “CRFTYDPPFMC (LOS peptide mimotope sequence) [Peptide 51]” here?
**A.** positive

**Q.** For “CLWRPIDPFLC (LOS peptide mimotope sequence) [Peptide 82]”, which “Phage ELISA: positive” value [3] is on record?
**A.** positive

**Q.** How did the “Phage ELISA: positive” value [3] turn out when “CLAASADTAAC (LOS peptide mimotope sequence) [Peptide 139]” was run?
**A.** positive

**Q.** “ARWYPISQT (LOS peptide mimotope sequence) [Peptide 124]” was tested. Which “Phage ELISA: positive” value [3] did it give?
**A.** positive

**Q.** For “CISEYAKGTTC (LOS peptide mimotope sequence) [Peptide 13]”, which “Phage ELISA: positive” value [3] is on record?
**A.** positive

**Q.** How did the “Phage ELISA: positive” value [3] turn out when “CANSRPGGYLC (LOS peptide mimotope sequence) [Peptide 30]” was run?
**A.** positive

**Q.** Which “Phage ELISA: positive” value [3] does the source give for “CFARPFQGTWC (LOS peptide mimotope sequence) [Peptide 22]” here?
**A.** positive

**Q.** How did the “Phage ELISA: positive” value [3] turn out when “CIDAGSHGWLC (LOS peptide mimotope sequence) [Peptide 133]” was run?
**A.** positive

**Q.** With “AITGVRARW (LOS peptide mimotope sequence) [Peptide 143]” as the sequence, how does the “Phage ELISA: positive” value [3] read?
**A.** positive

**Q.** With “WYTTPTRPV (LOS peptide mimotope sequence) [Peptide 75]” as the sequence, how does the “Phage ELISA: positive” value [3] read?
**A.** positive

**Q.** “CRPAFDPPYHC (LOS peptide mimotope sequence) [Peptide 54]” was tested. Which “Phage ELISA: positive” value [3] did it give?
**A.** positive

**Q.** “SNWYENTPT (LOS peptide mimotope sequence) [Peptide 58]” was tested. Which “Phage ELISA: positive” value [3] did it give?
**A.** positive

**Q.** Which “Phage ELISA: positive” value [3] does the source give for “LKWGDGSSA (LOS peptide mimotope sequence) [Peptide 104]” here?
**A.** positive

**Q.** For “CQPIGPPYDRC (LOS peptide mimotope sequence) [Peptide 28]”, which “Phage ELISA: positive” value [3] is on record?
**A.** positive

**Q.** How did the “Phage ELISA: positive” value [3] turn out when “CRGLQGHIAYC (LOS peptide mimotope sequence) [Peptide 87]” was run?
**A.** positive
